Patent US20140242595A1, “HEPATOCYTE PRODUCTION VIA FORWARD PROGRAMMING BY COMBINED GENETIC AND CHEMICAL ENGINEERING” (Cellular Dynamics International, Inc., priority 2013, published 2014)

What was measured:
[1] = test system: human rtTET-expressing ESCs transfected with GFH, H1AM and TBX3; assay: Hepatic programming efficiency by albumin (ALB) flow analysis; assay type: cell-based; conditions: for % ALB-expressing cells (hepatic programming efficiency): 0.5 μM, alone, added along with doxycycline day 1 to day 7 post-plating, FIG. 6
Text: Genes that are either implicated in hepatic differentiation during normal mammalian development or enriched in adult hepatocytes were cloned into the PiggyBac vector (FIG. 3) under the control of the […] promoter (Table 1). To find transcription factors that are able to directly impose mature hepatic fate upon human ESCs, various combinations of transgene-expressing PiggyBac vectors along with the hPBase-expressing vector were introduced into the human ESCs having constitutive expression of rtTET through nucleofection (Minis Ingenio Electroporation solution: cat#MIR50114; program: Amaxa B-016). Nucleofected human ESCs were cultured on matrigel in mTeSR1 (Stem Cell Technologies). Following geneticin (100 μg/ml) selection for stable genomic transgene integration (cells were passaged at lease once prior to differentiation), human ESCs were individualized by accutase treatment and plated to matrigel-coated 12-well plates. […] Where appropriate, small molecules, such as MEK inhibitor PD0325901, TGFβ kinase/activin receptor like kinase (ALK5) inhibitor A 83-01, and an analogue of the natural signaling molecule cyclic AMP 8-Bromoadenosine 3',5'-cyclic monophosphate (8-Br-cAMP), were added during hepatic programming. To determine the effect of MEK inhibitor PD0325901 (P) and TGFβ kinase/activin receptor like kinase (ALK5) inhibitor A 83-01 (A) on hepatic programming efficiency, human rtTET-expressing ESCs transfected with […] and TBX3 were plated on matrigel-coated 12-well plates at about 0.2×10^6 cells/well in mTeSR supplemented with 10 μM HA100 on day 0. […] Cells were collected for albumin (ALB) flow analysis on day 13 post-plating. […] Transfected cells were plated on matrigel-coated 12-well plates at about 0.2×10^6 cells/well in mTeSR supplemented with 10 μM HA100 on day 0. […] Cells were collected for ALB flow analysis on day 12 post-plating. […] With transgene expression, hepatocyte-like cells with polygonal shapes, distinct nuclei, and tight cell-cell contacts were readily observed. To determine the effect of cyclic AMP analog 8-Br-cAMP on hepatic programming, human rtTET-expressing ESCs transfected with […] and TBX3 were plated on matrigel-coated 12-well plates at about 0.2×10^6 cells/well in mTeSR supplemented with 10 μM HA100 on day 0. […] Cells were collected for ALB flow analysis on day 13 post-plating.

[2] = test system: MEK; conditions: Bain et al., 2007; cited from earlier work

## Nc1ncnc2c1nc(Br)n2[C@@H]1O[C@@H]2COP(=O)(O)O[C@H]2[C@H]1O [8-Br-cAMP, 8-Bromoadenosine 3′,5′-cyclic monophosphate]
[1]; added from day 7 after removal of doxycycline, P and A, ALB flow analysis day 13, FIG. 8
  saturation concentration for improved hepatic programming: ~200 µM
[1]; different concentrations added from day 7 after removal of doxycycline, P and A, ALB flow analysis day 13, FIG. 8
  hepatic programming (ALB flow analysis): significantly improved

## Cc1cccc(-c2nn(C(=S)Nc3ccccc3)cc2-c2ccnc3ccccc23)n1 [A 83-01]
[1]; ALB flow analysis day 13
  % ALB-expressing cells (hepatic programming efficiency): significantly improves

## C[C@H]1c2cccc(O)c2C(=O)C2=C(O)[C@]3(O)C(=O)C(C(N)=O)=C(O)[C@@H](N(C)C)[C@@H]3[C@@H](O)[C@@H]21 [Doxycycline]
[1]; doxycycline 1 μg/ml with P and A for 0, 2, 4, 6, 8 or 10 days, ALB flow analysis day 12, FIG. 7A
  optimal time window for transgene induction for hepatic programming: 4 days

## O=C(NOCC1CC1)c1ccc(F)c(F)c1Nc1ccc(I)cc1Cl [PD184352]
[2]
  specificity and potency compared to other known MEK inhibitors: high degree of specificity and potency

## O=C(NOC[C@H](O)CO)c1ccc(F)c(F)c1Nc1ccc(I)cc1F [PD0325901]
[1]; ALB flow analysis day 13
  % ALB-expressing cells (hepatic programming efficiency): significantly improves
